For one test, the target named is SzeaOBP1 (Sitophilus zeamais, UniProt A0A4P9CZ78). The experiment in a line: Fluorescence competitive binding assay (1-NPN probe) with recombinant SzeaOBP1. The conditions noted are these: for binding to SzeaOBP1, in words: fluorescence competitive binding. The procedure:
(§1) Emission fluorescence spectra were recorded on a Fluoromax-4500 fluorescence spectrophotometer (Hitachi, Tokyo, Japan) at room temperature in right-angle configuration, with a 1 cm light-path quartz cuvette and 5 nm slits for both excitation and emission. The protein was dissolved in 50 mM Tris-HCl buffer (pH 7.4), and ligands were added as 1 mM methanol solutions. A methanol solution of N-Phenyl-1-naphthylamine (1-NPN) (1 mM) was used as the fluorescent probe, and chromatography-grade methanol was used as the solvent. For determination of the binding constants of the SzeaOBPs with the probe, the excitation wavelength was set at 337 nm, and the emission wavelength was increased from 370 to 500 nm for scanning. The target SzeaOBP proteins were diluted in Tris-HCl buffer (pH 7.4) to a final concentration of 2 μM. After the sample was added, the fluorescence intensity was allowed to stabilize (approximately 15 s), and the maximum fluorescence intensity was recorded; the binding constant between the protein and probe was determined. This process was repeated three times for each sample. Then, the ligands (odorant standard samples) were diluted with pure methanol for competitive binding analysis. The final concentration of each ligand was […]. The final concentration of ligands in the colorimetric dish increased by 2 μM upon adding the ligands one by one. […] The binding constants between the target SzeaOBP proteins and the ligands were determined. The fluorescence intensity was measured by adding 50 mM Tris-HCl buffer, SzeaOBP protein, and the fluorescence probe 1-NPN to the colorimetric dish for fluorescence measurement. The final concentration was 2 μM. When the fluorescence intensity was stable, the maximum fluorescence intensity was recorded, and then the ligands dissolved in methanol were added to the colorimetric dish one by one. The concentration increased from 2 μM, and the changes in fluorescence intensity were recorded. Each measurement was repeated three times.
(§2) To calculate the binding constants, the fluorescence intensity and ligand concentration were plotted using GraphPad Prism 5. Assuming that 1-NPN binds to the protein at a 1:1 ratio and that the protein was 100% active, the curve was linearized using a Scatchard plot.

A further test concerns the target SzeaOBP28 (Sitophilus zeamais, UniProt A0A4V1GPX2). The test is described as follows: Fluorescence competitive binding assay (1-NPN probe) with recombinant SzeaOBP28. The conditions noted are these: for binding to SzeaOBP28, in words: fluorescence competitive binding. On the procedure:
as §1, §2

In another test the test system is adult S. zeamais. The experiment in a line: Behavioural experiment in a Y-tube olfactometer, normal adults. Type of test: in vivo, Sitophilus zeamais. Particulars: normal insects, 10 min observation. On the procedure: The behavioral experiments were designed to test the results for selected odorants. The odorant compounds used in behavioral experiments are from Table 1. To avoid the effects of temperature and light on the experiment, the evaluations were performed in a constant temperature and humidity (CTH) room at 28 ± 1 °C and 80% relative humidity under dim light supplied by a red fluorescent tube with no natural lighting. A Y-tube olfactometer system that was previously described by Yusuf and Takabayashi was used to test the attractiveness of different odorant treatments to adult maize weevils. The system comprised a central tube (10 cm long) and two lateral arms (each 15 cm long and 15 mm wide). The angles between the two arms were 75°. Each arm was connected to a glass chamber (200 mL capacity) holding the different odorants. The different parts of the device were connected in the following order: air pump, activated carbon filter, distilled water humidifier, odorant source device, gas flow meter, and Y-tube olfactometer. The parts were connected by Teflon tubes. Airflow through both arms was generated by applying air pressure, and the air was purified using a charcoal-filled gas wash bottle. The airflow through the arms of the Y-tube (150 mL/min/arm) was adjusted by using flow metres, which were positioned between the flasks and the Y-tube. A clean Y-tube was used for each test to avoid carryover of odorants.
Before bioassays, according to the experimental requirements, the odorant source was placed in the odorant source device, which was then ventilated for 15 min so that the odorant filled the tube to ensure accuracy of the test results. The antennae and appendages of the selected insects were verified to be intact, and the insects were confirmed to be active. The insects were introduced from the base of the main arm of the Y-tube olfactometer. The selected odorant was used for the treatment group, and a blank was used for the control group. A single adult S. zeamais insect was introduced into the Y-tube olfactometer at the entrance of the stem, with a maximum observation duration of 10 min per beetle, and the responses were considered positive when the insects reached at least 2 cm along the arm connected to the test chambers. […] Insects were used only once and then discarded. Each odorant was used to test 30 adult maize weevils, and the number of male and female insects per test was the same. Three groups of experiments were repeated for three times.

[1] abbreviates: calculated from IC50 with K1-NPN 8.590 μM, protein and 1-NPN 2 μM, Tris-HCl pH 7.4, read-out: Ki SzeaOBP1.
Where [2] appears, read: displacement of 1-NPN, protein and 1-NPN 2 μM, Tris-HCl pH 7.4, read-out: IC50 SzeaOBP1.
[3] abbreviates: calculated from IC50 with K1-NPN 7.214 μM, protein and 1-NPN 2 μM, Tris-HCl pH 7.4, read-out: Ki SzeaOP28.
The mark [4] stands for this setting: displacement of 1-NPN, protein and 1-NPN 2 μM, Tris-HCl pH 7.4, read-out: IC50 SzeaOP28.

Structures are written as SMILES. “Also recorded” adds a separate entry of the source. Read-outs that look alike come from different tables or passages of the source.

A word on the Ki: it is a dissociation constant, usually derived from enzyme kinetics or from competition with a known ligand. One may read the IC50 as the midpoint of a concentration-inhibition curve.

Chain of SzeaOBP28 (A0A4V1GPX2 entry or part of it): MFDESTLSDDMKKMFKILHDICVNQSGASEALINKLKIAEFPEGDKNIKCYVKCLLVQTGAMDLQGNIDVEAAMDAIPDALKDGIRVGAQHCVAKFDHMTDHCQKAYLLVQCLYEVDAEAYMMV
Chain of SzeaOBP1 (A0A4P9CZ78 entry or part of it): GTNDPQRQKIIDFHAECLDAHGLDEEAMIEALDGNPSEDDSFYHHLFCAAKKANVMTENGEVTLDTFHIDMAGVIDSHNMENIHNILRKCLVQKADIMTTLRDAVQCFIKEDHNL

For the molecule `CC(C)C=O` [Isobutyraldehyde], the values for the Ki at SzeaOBP1 (setting [1]) and at SzeaOBP28 (setting [3]) were 4.26 ± 0.138 µM and over 49.2 µM, respectively. Moreover, the results for the concentration for half-maximal inhibition (IC50) at SzeaOBP1 (setting [2]) and on SzeaOBP28 (setting [4]) were 4.99 ± 0.162 µM and over 60 µM, respectively.

`CCCCCCO` [Ligand 1-Hexanol, 1-Hexanol]: the Ki on SzeaOBP1 (setting [1]) is 4.67 ± 0.159 µM; at SzeaOBP28 (setting [3]), over 49.2 µM. In addition, the IC50 on SzeaOBP1 (setting [2]) is 5.47 ± 0.186 µM; at SzeaOBP28 (setting [4]), over 60 µM.

Regarding `COc1cc(C=O)ccc1O` [4-Hydroxy-3-methoxybenzaldehyde], on SzeaOBP1, the IC50 came out at 4.37 ± 0.203 µM and the Ki came out at 3.73 ± 0.173 µM. Also, at SzeaOBP28, the IC50 turned out to be 24.7 ± 2.34 µM; the Ki stood at 20.2 ± 1.92 µM; the “binding to SzeaOBP28, in words” value is listed as “pronounced binding affinity”. Moreover, in the test with adult S. zeamais, the “behavioural response (attraction) of male and female adults vs blank control” value is “responded strongly; also recorded: stimulated activity in a significantly higher number of normal male and female weevils than the control treatment”.

With `CC1=CC[C@@H]2C[C@H]1C2(C)C` [(+)-a-Pinene], the Ki was over 51.2 µM on SzeaOBP1 (setting [1]) and over 49.2 µM at SzeaOBP28 (setting [3]). Further, the IC50 on SzeaOBP1 (setting [2]) and at SzeaOBP28 (setting [4]) was over 60 µM each time. For the same molecule, the “binding to SzeaOBP1, in words” value on SzeaOBP1 is “did not bind”. Also, at SzeaOBP28, the “binding to SzeaOBP28, in words” value is “did not bind”.

On to `CCCCCCC=O` [Heptaldehyde], for which the Ki is 4.87 ± 0.111 µM on SzeaOBP1 (setting [1]) and over 49.2 µM on SzeaOBP28 (setting [3]). Besides, the half-maximal inhibitory concentration (IC50) at SzeaOBP1 (setting [2]) was 5.71 ± 0.13 µM; at SzeaOBP28 (setting [4]), over 60 µM.

With `CCCCCCCCCCCCCCCCO` [Cetanol], the results for the Ki on SzeaOBP1 (setting [1]) and at SzeaOBP28 (setting [3]) were 2.75 ± 0.139 µM and over 49.2 µM, respectively. The IC50 at SzeaOBP1 (setting [2]) is 3.22 ± 0.162 µM; at SzeaOBP28 (setting [4]), over 60 µM. Moreover, the “binding to SzeaOBP1, in words” value at SzeaOBP1 is on record as “extremely high binding affinity”. In the test with adult S. zeamais, the “behavioural response (attraction) of male and female adults vs blank control” value is listed as “Significant differences”.

Take `CC(=O)O` [Acetic acid (glacial)]: the values for the Ki at SzeaOBP1 (setting [1]) and at SzeaOBP28 (setting [3]) were 15.7 ± 0.717 µM and over 49.2 µM, respectively. In addition, the figures for the IC50 at SzeaOBP1 (setting [2]) and on SzeaOBP28 (setting [4]) were 18.4 ± 0.84 µM and over 60 µM, respectively.

With `CC(=O)CCC=C(C)C` [6-Methyl-5-hepten-2-one], the IC50 at SzeaOBP1 is 6.5 ± 0.15 µM; at SzeaOBP28, 45.8 ± 1.23 µM. Moreover, the Ki on SzeaOBP1 is 5.55 ± 0.128 µM; at SzeaOBP28, 37.6 ± 1.01 µM.

As for `Cc1occc(=O)c1O` [Maltol (3-hydroxy-2-methyl-4-pyrone)], the inhibitory constant (Ki) at SzeaOBP1 (setting [1]) is 5.28 ± 0.333 µM; at SzeaOBP28 (setting [3]) it was over 49.2 µM. Further, the IC50 at SzeaOBP1 (setting [2]) is 6.18 ± 0.39 µM; at SzeaOBP28 (setting [4]), over 60 µM.

On to `CCCCCCCCCCCCCCCC` [N-Hexadecane, N-hexadecane], for which the Ki on SzeaOBP1 (setting [1]) was over 51.2 µM; on SzeaOBP28 (setting [3]), over 49.2 µM. The IC50 on SzeaOBP1 (setting [2]) and at SzeaOBP28 (setting [4]) was over 60 µM each time.

On to `CCCCCC=O` [1-Pentanecarbaldehyde], for which, on SzeaOBP1, the IC50 amounted to 6.07 ± 0.154 µM and the inhibition constant (Ki) is 5.18 ± 0.132 µM. Moreover, at SzeaOBP28, the IC50 stood at 59.4 ± 1.21 µM and the Ki was 48.7 ± 0.852 µM.

As to `CCCCCCCCCC=O` [Decanal], the Ki on SzeaOBP1 (setting [1]) is over 51.2 µM; on SzeaOBP28 (setting [3]), over 49.2 µM. Moreover, the IC50 at SzeaOBP1 (setting [2]) and at SzeaOBP28 (setting [4]) was over 60 µM each time. Also, the “binding to SzeaOBP1, in words” value on SzeaOBP1 is on record as “did not bind”. The “binding to SzeaOBP28, in words” value at SzeaOBP28 is listed as “did not bind”.

On to `CC(C)CC=O` [3-Methylbutanal], for which the Ki on SzeaOBP1 (setting [1]) was 6.51 ± 0.163 µM; at SzeaOBP28 (setting [3]) it was over 49.2 µM. For the same molecule, the figures for the IC50 at SzeaOBP1 (setting [2]) and at SzeaOBP28 (setting [4]) were 7.62 ± 0.191 µM and over 60 µM, respectively.

As for `CCCCCCCCCO` [Ligand 1-Nonanol, 1-Nonanol], the Ki at SzeaOBP1 (setting [1]) is 6.94 ± 0.234 µM; on SzeaOBP28 (setting [3]) it was over 49.2 µM. Besides, the IC50 at SzeaOBP1 (setting [2]) is 8.13 ± 0.274 µM; at SzeaOBP28 (setting [4]), over 60 µM.

(Values after article PMC6920827, “Characterization of the Expression and Functions of Two Odorant-Binding Proteins of Sitophilus zeamais Motschulsky (Coleoptera: Curculionoidea)” (Insects, 2019).)
